± gives the expanded uncertainty stated by the source.
How the values were obtained:
[1] = 101.33 kPa, Liquid, Vibrating tube method
[2] = activity coefficient (dimensionless); of the first substance listed, at infinite dilution; xn = mol fraction of the nth substance listed; settings: 101.33 kPa, Liquid, Chromatography, x1 = 0

SMILES | activity coefficient ([2]; 318.15 K) | activity coefficient ([2]; 328.15 K) | activity coefficient ([2]; 338.15 K) | activity coefficient ([2]; 348.15 K) | activity coefficient ([2]; 358.15 K) | activity coefficient ([2]; 368.15 K) | activity coefficient ([2]; 298.15 K) | activity coefficient ([2]; 308.15 K) | other results
C[N+]1(CCCO)CCOCC1.N#C[N-]C#N [4-(3-hydroxypropyl)-4-methylmorpholinium dicyanamide] | – | – | – | – | – | – | – | – | mass density ([1]; 298.15 K): 1175.4 ± 3.7 kg/m3; mass density ([1]; 303.15 K): 1172.4 ± 3.7 kg/m3; mass density ([1]; 308.15 K): 1169.4 ± 3.7 kg/m3; mass density ([1]; 313.15 K): 1166.5 ± 3.7 kg/m3; mass density ([1]; 318.15 K): 1163.6 ± 3.7 kg/m3; mass density ([1]; 323.15 K): 1160.7 ± 3.7 kg/m3; mass density ([1]; 328.15 K): 1157.9 ± 3.7 kg/m3; mass density ([1]; 333.15 K): 1155 ± 3.7 kg/m3; mass density ([1]; 338.15 K): 1152.1 ± 3.6 kg/m3; mass density ([1]; 343.15 K): 1149.3 ± 3.6 kg/m3; mass density ([1]; 348.15 K): 1146.5 ± 3.6 kg/m3; mass density ([1]; 353.15 K): 1143.7 ± 3.6 kg/m3; mass density ([1]; 358.15 K): 1141 ± 3.6 kg/m3; mass density ([1]; 363.15 K): 1138.2 ± 3.6 kg/m3; mass density ([1]; 368.15 K): 1135.5 ± 3.6 kg/m3
C[n+]1ccn(CCCO)c1.N#CN=C=[N-] [1-(3-hydroxypropyl)-3-methylimidazolium dicyanamide] | – | – | – | – | – | – | – | – | mass density ([1]; 298.15 K): 1171 ± 11 kg/m3; mass density ([1]; 303.15 K): 1167.8 ± 11 kg/m3; mass density ([1]; 308.15 K): 1164.6 ± 11 kg/m3; mass density ([1]; 313.15 K): 1161.4 ± 11 kg/m3; mass density ([1]; 318.15 K): 1158.2 ± 11 kg/m3; mass density ([1]; 323.15 K): 1155.1 ± 11 kg/m3; mass density ([1]; 328.15 K): 1152 ± 11 kg/m3; mass density ([1]; 333.15 K): 1148.9 ± 10 kg/m3; mass density ([1]; 338.15 K): 1145.8 ± 10 kg/m3; mass density ([1]; 343.15 K): 1142.7 ± 10 kg/m3; mass density ([1]; 348.15 K): 1139.6 ± 10 kg/m3; mass density ([1]; 353.15 K): 1136.6 ± 10 kg/m3; mass density ([1]; 358.15 K): 1133.6 ± 10 kg/m3; mass density ([1]; 363.15 K): 1130.6 ± 10 kg/m3; mass density ([1]; 368.15 K): 1127.6 ± 10 kg/m3
CCO [ethanol] + C[n+]1ccn(CCCO)c1.N#CN=C=[N-] | 1.17 ± 0.07 | 1.17 ± 0.07 | 1.18 ± 0.08 | 1.19 ± 0.08 | 1.2 ± 0.08 | 1.2 ± 0.08 | – | – | –
CCCc1ccccc1 [propylbenzene] + C[N+]1(CCCO)CCOCC1.N#C[N-]C#N | 54.1 ± 3.7 | 53.2 ± 3.6 | 52.4 ± 3.6 | 51.5 ± 3.5 | 51 ± 3.5 | 50.2 ± 3.4 | – | – | –
C=CCCCCCCCC [1-decene] + C[n+]1ccn(CCCO)c1.N#CN=C=[N-] | 764 ± 53 | 710 ± 49 | 662 ± 46 | 627 ± 43 | 590 ± 41 | – | 879 ± 61 | 819 ± 56 | –
CC1CCCCC1 [methylcyclohexane] + C[n+]1ccn(CCCO)c1.N#CN=C=[N-] | 169 ± 12 | 154 ± 11 | 141 ± 10 | 131 ± 9 | 121 ± 8 | – | 207 ± 14 | 187 ± 13 | –
C=CCCCCCC [oct-1-ene] + C[n+]1ccn(CCCO)c1.N#CN=C=[N-] | 305 ± 21 | 282 ± 19 | 263 ± 18 | 245 ± 17 | 234 ± 16 | – | 358 ± 25 | 331 ± 23 | –
c1ccsc1 [thiophene] + C[n+]1ccn(CCCO)c1.N#CN=C=[N-] | 2.44 ± 0.17 | 2.57 ± 0.17 | 2.69 ± 0.18 | 2.82 ± 0.19 | 2.95 ± 0.2 | 3.07 ± 0.21 | – | – | –
